Patent US20230165252A1, “ACTIVE COMPOUND COMBINATIONS” (Bayer Aktiengesellschaft, priority 2020, published 2023)
“And” between values parts separate entries of the source, which are not always exact repeats. Equal values may be shown once. Read-outs that look alike come from different tables or passages of the source.

Experiments:
Format in all cases: cell-based
Alternaria alternate = assay: in vitro-Test with Alternaria alternate (microtiter growth inhibition); conditions: for inhibition of growth at 0.008 ppm / inhibition of growth at 0.04 ppm / inhibition of growth at 1 ppm / inhibition of growth at 0.2 ppm / inhibition of growth at 0.8 ppm / inhibition of growth at 4 ppm / inhibition of growth at 20 ppm: Alternaria
Experimental: (§1) The degree of efficacy expressed in % is denoted: 0% means an efficacy, which corresponds to that of the control, while an efficacy of 100% means that no disease is observed.
(§2) If the actual fungicidal activity exceeds the calculated value, then the activity of the combination is super-additive, i.e. a synergistic effect exists. In this case, the efficacy, which was actually observed, must be greater than the value for the expected efficacy (E), that was calculated from the abovementioned formula.
(§3) Example: In Vitro-Test with Fungal Microorganisms
(§4) Wells of 96-well microtiter plates are filled with 10 μl of a preparation of test compound or compound combination in methanol+emulsifier alkylaryl-polyglycol-ether. Thereafter, the solvent is evaporated in a hood. At the next step, 100 μl of liquid potato dextrose medium is given into each well, that has been amended with an appropriate concentration of spores or mycelium suspension of the test fungus.
(§5) With the aid of a photometer, the extinction in all wells is measured at the wavelength of 620 nm.
(§6) The microtiter plates are incubated at 20° C. and 85% relative humidity. The inhibition of growth is determined again photometrically 3-5 days after the application. Efficacy is calculated in relation to the untreated control, 0% efficacy means fungal growth as high as in untreated control while 100% efficacy means no fungal growth is measured.

Cordana musae = assay: in vitro-Test with Cordana musae (microtiter growth inhibition); conditions: single substance
Experimental: as §1, §2, §3, §4, §5, §6

Diaporthe citri = assay: in vitro-Test with Diaporthe citri (microtiter growth inhibition); conditions: applied alone
Experimental: as §2, §3, §4, §5, §6

Fusarium culmorum = assay: in vitro-Test with Fusarium culmorum (microtiter growth inhibition)
Experimental: as §1, §2, §3, §4, §5, §6

[1] = tested on: Ustilago segetum var. avenae; assay: in vitro-Test with Ustilago segetum var. avenae (microtiter growth inhibition); conditions: single compound, read-out: Efficacy %
Experimental: as §1, §2, §3, §4, §5, §6

Cercospora beticola = assay: in vitro-Test with Cercospora beticola (microtiter growth inhibition); conditions: alone
Experimental: as §1, §2, §3, §4, §5, §6

Botrytis cinerea = assay: in vitro-Test with Botrytis cinerea (microtiter growth inhibition); conditions: applied alone
Experimental: as §1, §2, §3, §4, §5, §6

[2] = applied alone, read-out: Efficacy
[3] = applied alone, 0.2 ppm, read-out: Efficacy
[4] = Diaporthe citri, 0.04 ppm, read-out: Efficacy
[5] = Diaporthe citri, 1.0 ppm, read-out: Efficacy
[6] = Fusarium culmorum, 0.04 ppm, read-out: Efficacy
[7] = Fusarium culmorum, 1.0 ppm, read-out: Efficacy
[8] = Cercospora beticola, read-out: Efficacy %
[9] = Cercospora beticola, 1.0 ppm, read-out: Efficacy %
[10] = Neocordana musae, read-out: Efficacy
[11] = Diaporthe citri, read-out: Efficacy
[12] = Fusarium culmorum, read-out: Efficacy

For `CC1COC(Cn2cncn2)(c2ccc(Oc3ccc(Cl)cc3)cc2Cl)O1` (stereo not shown) [difenoconazole], the inhibition of growth at 0.008 ppm (Alternaria alternate; alone, read-out: Efficacy %) was 8%, the inhibition of growth at 0.04 ppm (Alternaria alternate; alone, read-out: Efficacy %) was 4% and the inhibition of growth at 1 ppm (Alternaria alternate; alone, read-out: Efficacy %) was 98%. The inhibition of growth at 0.008 ppm (Alternaria alternate; [2]) was 11%, the inhibition of growth at 0.2 ppm (Alternaria alternate; [3]) was 3% and the inhibition of growth at 0.008 ppm (Cordana musae; Neocordana musae, 0.008 ppm, read-out: Efficacy) was 0%. For the same compound, the inhibition of growth at 1 ppm (Cordana musae; Neocordana musae, 1.0 ppm, read-out: Efficacy) was 42%, the inhibition of growth at 0.04 ppm (Diaporthe citri; [4]) was 13% and the inhibition of growth at 1 ppm (Diaporthe citri; [5]) was 88%. For the same compound, the Efficacy (Diaporthe citri; 0.008 ppm) was 0%, the inhibition of growth at 0.008 ppm (Fusarium culmorum; Fusarium culmorum, 0.008 ppm, read-out: Efficacy) was 3% and the inhibition of growth at 0.04 ppm (Fusarium culmorum; [6]) was 8%. For the same compound, the inhibition of growth at 0.2 ppm (Fusarium culmorum; Fusarium culmorum, 0.2 ppm, read-out: Efficacy) was 0%, the inhibition of growth at 1 ppm (Fusarium culmorum; [7]) was 0% and the inhibition of growth at 0.04 ppm ([1]; 0.04 ppm) was 4%. It also gave an inhibition of growth at 0.2 ppm ([1]; 0.2 ppm) of 70%, an inhibition of growth at 1 ppm ([1]; 1.0 ppm) of 100% and an inhibition of growth at 0.008 ppm (Cercospora beticola; [8]) of 9%. It also gave an inhibition of growth at 0.2 ppm (Cercospora beticola; [8]) of 68% and an inhibition of growth at 1 ppm (Cercospora beticola; [9]) of 100%.
Compound `N#Cc1sc2c(=O)c3ccccc3c(=O)c=2sc1C#N` [dithianon] has an inhibition of growth at 0.8 ppm (Alternaria alternate; alone, read-out: Efficacy %) of 0%, an inhibition of growth at 4 ppm (Alternaria alternate; alone, read-out: Efficacy %) of 71% and an inhibition of growth at 20 ppm (Alternaria alternate; alone, read-out: Efficacy %) of 100%. For the same compound, the inhibition of growth at 0.8 ppm (Cordana musae; [10]) was 9%, the inhibition of growth at 4 ppm (Cordana musae; [10]) was 99% and the inhibition of growth at 20 ppm (Cordana musae; [10]) was 98%. For the same compound, the inhibition of growth at 0.8 ppm (Diaporthe citri; Diaporthe citri, 0.8 ppm, read-out: Efficacy) was 34%, the inhibition of growth at 4 ppm (Diaporthe citri; [11]) was 98% and the inhibition of growth at 20 ppm (Diaporthe citri; [11]) was 97%. For the same compound, the inhibition of growth at 0.8 ppm (Fusarium culmorum; [12]) was 0%, the inhibition of growth at 4 ppm (Fusarium culmorum; [12]) was 39% and the inhibition of growth at 20 ppm (Fusarium culmorum; [12]) was 100%. It also gave an inhibition of growth at 4 ppm (Cercospora beticola; Cercospora beticola, 4 ppm, read-out: Efficacy %) of 99% and an inhibition of growth at 20 ppm (Cercospora beticola; [8]) of 98%.
With `COc1ccnc(C(=O)N[C@H]2COC(=O)[C@H](Cc3ccccc3)[C@@H](OC(=O)C(C)C)[C@H](C)OC2=O)c1OCOC(=O)C(C)C` [fenpicoxamid] the Efficacy % (Alternaria alternate; 0.2 ppm, alone) was 10% and 4%, the Efficacy % (Alternaria alternate; 5.0 ppm, alone) was 80% and 81% and the Efficacy (Alternaria alternate; applied alone, 5.0 ppm) was 64%. For the same compound, the Efficacy (Cordana musae; 1.0 ppm) was 50%, the Efficacy (Cordana musae; 5.0 ppm) was 74% and the Efficacy (Diaporthe citri; 0.04 ppm) was 0%. For the same compound, the Efficacy (Diaporthe citri; 0.2 ppm) was 5% and 0%, the Efficacy (Diaporthe citri; 1.0 ppm) was 87% and 73% and 75% and the Efficacy (Diaporthe citri; 5.0 ppm) was 94% and 93% and 90%. For the same compound, the Efficacy (Fusarium culmorum; 0.04 ppm) was 0%, the Efficacy (Fusarium culmorum; 0.2 ppm) was 0% and the Efficacy (Fusarium culmorum; 1.0 ppm) was 0%. For the same compound, the Efficacy (Fusarium culmorum; 5.0 ppm) was 0%, the Efficacy % (Cercospora beticola; 1.0 ppm) was 74% and 58% and 42% and the Efficacy % (Cercospora beticola; 5.0 ppm) was 86% and 78%.
In the case of `O=C(NCCc1ncc(C(F)(F)F)cc1Cl)c1ccccc1C(F)(F)F` [fluopyram], the inhibition of growth at 0.8 ppm (Alternaria alternate; alone, read-out: Efficacy %) is reported as 77%, the inhibition of growth at 4 ppm (Alternaria alternate; alone, read-out: Efficacy %) is reported as 94% and the inhibition of growth at 0.8 ppm (Alternaria alternate; [2]) is reported as 81%. The inhibition of growth at 4 ppm (Alternaria alternate; [2]) was 85%, the inhibition of growth at 20 ppm (Alternaria alternate; [2]) was 99% and the inhibition of growth at 0.8 ppm (Cordana musae; [10]) was 0%. The inhibition of growth at 4 ppm (Cordana musae; [10]) was 5%, the inhibition of growth at 20 ppm (Cordana musae; [10]) was 20% and the inhibition of growth at 4 ppm (Diaporthe citri; [11]) was 0%. For the same compound, the inhibition of growth at 20 ppm (Diaporthe citri; [11]) was 26%, the inhibition of growth at 0.8 ppm (Fusarium culmorum; [12]) was 1% and the inhibition of growth at 4 ppm (Fusarium culmorum; [12]) was 0%. The inhibition of growth at 20 ppm (Fusarium culmorum; [12]) was 3% and the inhibition of growth at 20 ppm (Cercospora beticola; [8]) was 17%.
`CC(C)(C)C(O)(CCc1ccc(Cl)cc1)Cn1cncn1` (stereo not shown) [tebuconazole] showed an Efficacy (Botrytis cinerea; 0.008 ppm) of 0%, an Efficacy (Botrytis cinerea; 0.04 ppm) of 8% and an Efficacy (Botrytis cinerea; 0.2 ppm) of 20%. The Efficacy (Botrytis cinerea; 1.0 ppm) was 100%, the inhibition of growth at 0.008 ppm (Alternaria alternate; alone, read-out: Efficacy %) was 11% and the inhibition of growth at 0.04 ppm (Alternaria alternate; alone, read-out: Efficacy %) was 9%. It also gave an inhibition of growth at 0.2 ppm (Alternaria alternate; 0.2 ppm, alone, read-out: Efficacy %) of 32%, an inhibition of growth at 1 ppm (Alternaria alternate; alone, read-out: Efficacy %) of 98% and an inhibition of growth at 0.008 ppm (Alternaria alternate; [2]) of 0%. The inhibition of growth at 0.04 ppm (Alternaria alternate; [2]) was 14%, the inhibition of growth at 0.2 ppm (Alternaria alternate; [3]) was 48% and the inhibition of growth at 1 ppm (Alternaria alternate; [2]) was 99%. It also gave an inhibition of growth at 0.2 ppm (Cordana musae; Neocordana musae, 0.2 ppm, read-out: Efficacy) of 2%, an inhibition of growth at 0.04 ppm (Diaporthe citri; [4]) of 47% and an inhibition of growth at 0.2 ppm (Diaporthe citri; Diaporthe citri, 0.2 ppm, read-out: Efficacy) of 96%. The inhibition of growth at 1 ppm (Diaporthe citri; [5]) was 98%, the inhibition of growth at 0.04 ppm (Fusarium culmorum; [6]) was 0% and the inhibition of growth at 1 ppm (Fusarium culmorum; [7]) was 99%. The inhibition of growth at 0.008 ppm (Cercospora beticola; [8]) was 0%, the inhibition of growth at 0.04 ppm (Cercospora beticola; Cercospora beticola, 0.04 ppm, read-out: Efficacy %) was 22% and the inhibition of growth at 0.2 ppm (Cercospora beticola; [8]) was 83%. For the same compound, the inhibition of growth at 1 ppm (Cercospora beticola; [9]) was 100%.
